In patent US7527934B2, “Labeled substrate conjugates for identifying enzyme inhibitors” (priority 2004, dated 2009):
Like-named read-outs stand apart in the source and are kept apart here.

Columns and labels:
[1] = target: Clostridium perfringens neuraminidase; assay type: biochemical; settings: for IC50: pH 6.5, read-out: Solution phase IC50, Clostridium perfringens
[2] = target: T1, Salmonella typhimurium neuraminidase (Salmonella typhimurium, UniProt P29768); assay: biochemical; assay type: biochemical
T1 construct: purchased Sigma
T1 sequence (P29768 whole entry): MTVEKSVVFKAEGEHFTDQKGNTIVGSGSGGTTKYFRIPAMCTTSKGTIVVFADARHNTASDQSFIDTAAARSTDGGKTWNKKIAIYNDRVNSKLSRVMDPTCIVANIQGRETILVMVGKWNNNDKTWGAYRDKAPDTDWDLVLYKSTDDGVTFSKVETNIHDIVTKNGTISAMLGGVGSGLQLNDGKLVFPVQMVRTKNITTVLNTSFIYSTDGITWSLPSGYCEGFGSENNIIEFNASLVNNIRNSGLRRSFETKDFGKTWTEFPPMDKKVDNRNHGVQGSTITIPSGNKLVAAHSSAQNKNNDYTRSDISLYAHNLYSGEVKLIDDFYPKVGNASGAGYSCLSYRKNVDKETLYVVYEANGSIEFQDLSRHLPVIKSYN

[3] = target: T2, Vibrio cholerae neuraminidase (Vibrio cholerae serotype O1, UniProt P0C6E9); assay: biochemical; assay type: biochemical
T2 construct: purchased Sigma
T2 sequence (P0C6E9 25-781 limits assumed): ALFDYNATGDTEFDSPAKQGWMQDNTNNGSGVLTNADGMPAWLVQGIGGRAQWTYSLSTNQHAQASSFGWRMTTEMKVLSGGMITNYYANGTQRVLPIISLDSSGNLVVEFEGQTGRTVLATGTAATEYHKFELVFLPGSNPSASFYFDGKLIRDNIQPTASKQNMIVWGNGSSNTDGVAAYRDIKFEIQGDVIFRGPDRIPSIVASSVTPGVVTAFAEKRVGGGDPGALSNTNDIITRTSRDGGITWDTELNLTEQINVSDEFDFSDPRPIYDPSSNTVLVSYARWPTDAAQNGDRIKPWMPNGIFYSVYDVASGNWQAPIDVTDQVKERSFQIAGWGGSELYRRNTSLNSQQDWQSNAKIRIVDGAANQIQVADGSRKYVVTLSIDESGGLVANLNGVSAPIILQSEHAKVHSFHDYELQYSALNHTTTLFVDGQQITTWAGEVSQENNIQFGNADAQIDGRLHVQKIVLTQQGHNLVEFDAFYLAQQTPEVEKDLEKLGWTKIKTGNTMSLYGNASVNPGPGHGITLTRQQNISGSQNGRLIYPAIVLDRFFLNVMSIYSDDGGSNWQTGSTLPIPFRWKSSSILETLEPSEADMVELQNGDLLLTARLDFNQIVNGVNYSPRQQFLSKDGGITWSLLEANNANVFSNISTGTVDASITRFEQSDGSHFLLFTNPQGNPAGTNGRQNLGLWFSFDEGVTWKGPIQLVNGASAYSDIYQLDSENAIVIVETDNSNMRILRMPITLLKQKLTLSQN

[4] = target: T1, Salmonella typhimurium neuraminidase; settings: value in brackets marked lit; read-out: Solution phase IC50, Salmonella typhimurium, literature value; cited from earlier work
[5] = target: T3, α2,6-sialyltransferase (Rattus norvegicus, UniProt P13721); settings: read-out: KM value; literature (Gross et al. 1989); cited from earlier work
T3 sequence (P13721 1-403): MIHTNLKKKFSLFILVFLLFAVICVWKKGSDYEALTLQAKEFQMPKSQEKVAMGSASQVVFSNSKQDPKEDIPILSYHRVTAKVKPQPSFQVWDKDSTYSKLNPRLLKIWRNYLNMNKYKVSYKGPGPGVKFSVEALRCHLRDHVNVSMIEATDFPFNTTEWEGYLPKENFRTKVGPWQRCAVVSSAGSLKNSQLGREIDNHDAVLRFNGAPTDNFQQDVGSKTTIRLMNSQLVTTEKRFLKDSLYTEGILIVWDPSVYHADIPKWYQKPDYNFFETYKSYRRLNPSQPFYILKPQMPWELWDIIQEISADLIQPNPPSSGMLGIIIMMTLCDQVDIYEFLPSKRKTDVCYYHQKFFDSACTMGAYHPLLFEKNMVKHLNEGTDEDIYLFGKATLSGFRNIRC

[6] = target: T3, α2,6-sialyltransferase; assay: Sialyltransferase competitive assay; assay type: biochemical; set-up: purchased Calbiochem
[7] = tested on: α2,3-sialyltransferase; assay: Substrate recognition by sialyltransferase (FRET donor/acceptor); assay type: biochemical; settings: acceptor 0.2 mM, donor 0.1 mM, sialyltransferase 0.2 mU, FIG. 15
[8] = target: T3, α2,6-sialyltransferase; assay: as above; assay type: biochemical; set-up: purchased Calbiochem; settings: acceptor 0.2 mM, donor 0.1 mM, sialyltransferase 0.2 mU, FIG. 15

| Compound | IC50 [1] | IC50 [2] | IC50 [3] | further results |
| --- | --- | --- | --- | --- |
| CC(=O)NC1C(O)CC(O)(C(=O)O)OC1[C@H](O)[C@H](O)CO (stereo partly shown) | > 2000 µM | > 2000 µM | > 2000 µM |  |
| CC(=O)NC1C(N)C=C(C(=O)O)OC1[C@H](O)[C@H](O)CO (stereo partly shown) | > 2000 µM | > 2000 µM | > 2000 µM |  |
| CC1=NC2C(O)C=C(C(=O)O)OC2C(CC(=O)N[C@@H](C(N)=O)C2CCCCC2)O1 (stereo partly shown) | 1600 µM | > 2000 µM | > 2000 µM |  |
| CC(=O)NC1C(NC(=N)N)C=C(C(=O)O)OC1[C@H](OC(N)=O)[C@H](O)CO (stereo partly shown) | > 2000 µM | > 2000 µM | 250 µM |  |
| CC(=O)NC1C(O)C=C(C(=O)O)OC1[C@H](O)[C@H](O)CO (stereo partly shown) [2-deoxy-2,3-dehydro-N-acetylneuraminic acid] | 4 µM | 310 µM |  | Inhibition of Clostridium perfringens neuraminidase [1]: good inhibitor; Inhibition of Salmonella typhimurium neuraminidase [2]: good inhibitor; Inhibition of Vibrio cholerae neuraminidase [3]: good inhibitor; IC50 [4]: 350 µM |
| CC(=O)NC1C(NC(=N)N)C=C(C(=O)O)OC1[C@H](O)[C@H](O)CO (stereo partly shown) [4-guanidino-2-deoxy-2,3-didehydro-N-acetylneuraminic acid] |  | > 2000 µM | 200 µM | Inhibition of Vibrio cholerae neuraminidase [3]: inhibitor |
| CC(=O)NC1C(O)CC(OP(=O)(O)OC[C@H]2O[C@@H](n3ccc(N)nc3=O)[C@@H](O)C2O)(C(=O)O)OC1[C@H](O)[C@H](O)CO (stereo partly shown) [CMP-Neu5Ac, cytidine monophosphate N-acetylneuraminic acid] |  |  |  | Km [5]: 45 µM; IC50 [6]: 85 µM |
| NC(=O)C(Cc1ccc(O)c([N+](=O)[O-])c1)NC(=O)Cc1cc(=O)oc2cc(O)ccc12 (stereo not shown) [Compound 41, 3-(4-Hydroxy-3-nitro-phenyl)-2-[2-(7-hydroxy-2-oxo-2H-chromen-4-yl)-acetylamino]-propionamide] |  |  |  | melting point: 203 °C |
| NC(=O)C(Cc1ccc(O)c([N+](=O)[O-])c1)NC(=O)CCC(=O)NCCOCCOCCNC(=O)Cc1cc(=O)oc2cc(O)ccc12 (stereo not shown) [Compound 42, N-[1-Carbamoyl-2-(4-hydroxy-3-nitro-phenyl)-ethyl]-N′-[2-(2-{2-[2-(7-hydroxy-2-oxo-2H-chromen-4-yl)-acetylamino]-ethoxy}-ethoxy)-ethyl]-succinamide] |  |  |  | melting point: 115 °C |
| N[C@@H](Cc1ccc(O)c([N+](=O)[O-])c1)C(=O)NCCO[C@@H]1O[C@H](CO)[C@@H](O[C@@H]2O[C@H](CO)[C@H](O)[C@H](O)[C@H]2O)[C@H](O)[C@H]1O [acceptor 64, 2-(3-Nitro-L-tyrosyl-amide)ethyl β-D-galactopyransyl-(1→4)-O-β-D-glucopyranoside] |  |  |  | Substrate recognition by α2,3-sialyltransferase [7]: poor substrate recognition; Substrate recognition by α2,6-sialyltransferase [8]: poor substrate recognition |
| CC(=O)N[C@H]1[C@H](OCCNC(=O)[C@@H](N)Cc2ccc(O)c([N+](=O)[O-])c2)O[C@H](CO)[C@@H](O[C@@H]2O[C@H](CO)[C@H](O)[C@H](O)[C@H]2O)[C@@H]1O [acceptor 69, 2-(3-Nitro-L-tyrosyl-amide)ethyl β-D-galactopyransyl-(1→4)-O-2-acetamido-2-deoxy-β-D-glucopyranoside] |  |  |  | Substrate recognition by α2,3-sialyltransferase [7]: good substrates; Substrate recognition by α2,6-sialyltransferase [8]: good substrates |
| CMP-5-(7-hydroxy-4-coumarinyl-acetamido)-NeuAc [donor 55] |  |  |  | Substrate recognition by α2,3-sialyltransferase [7]: good substrates; Substrate recognition by α2,6-sialyltransferase [8]: good substrates |
